Tested on: anti-CD66c antibody, AP11
Assay: Inhibition of AP11 binding on A549 cells by recombinant antigen, flow cytometry
Settings: 10, 50 and 100 μg recombinant antigen conjugated with AP11 before A549 cells
Experimental: In order to confirm whether the purified recombinant antigen (CD66c-HuIgFc) in the above Example 1-3 acts as CD66c antigen, inhibition of conjugation of anti-CD66c antibody, AP11, on the surface of A549 cells by the above recombinant antigen was confirmed by flow cytometry, and the result is shown in FIG. 6.
Specifically, after conjugating 0, 10, 50 and 100 μg of the above recombinant antigen with AP11 antibody for 30 min at 4° C., it was added to A549 cells and reacted for 30 min at 4° C., added with 3 ml of PBS, centrifuged for 3 min at 1500 rpm and washed. To confirm the conjugated antibody, secondary antibody, goat anti-Mouse IgM FITC (DiNonA) was diluted 200 times, added, reacted for 15 min at 4° C., washed as above with 3 ml of PBS and measured by flow cytometry.

## CD66c-HuIgFc: recombinant antigen linking CD66c 34~340 aa region and human immunoglobulin Fc region CH2-CH3
  blocking of anti-CD66c mAb (AP11) binding to A549 cells: blocking was observed proportional to the treated amount
